Data on 33 compounds can be found in ChEMBL document CHEMBL4196005, “Novel butanehydrazide derivatives of purine-2,6-dione as dual PDE4/7 inhibitors with potential anti-inflammatory activity: Design, synthesis and biological evaluation” (Eur J Med Chem, 2018).

In assay [1] the test system is Mus musculus. The experiment in a line: In vivo inhibition of PDE4 in Balb/c mouse assessed as plasma cAMP levels at 100 mg/kg, po after 20 mins by RIA (reference value: 80.5 pmol/ml). Format: functional. A general note: cAMP levels reflect the balance of adenylyl cyclase and phosphodiesterase activity.
The target of assay [2] is 3',5'-cyclic-AMP phosphodiesterase 4B (Homo sapiens, UniProt Q07343). The assay is described as follows: Inhibition of human GST-tagged PDE4B expressed in baculovirus infected Sf9 insect cells using cAMP as substrate after 10 mins by PDE-Glo Phosphodiesterase Assay.
3',5'-cyclic-AMP phosphodiesterase 4B, sequence (Q07343 whole entry): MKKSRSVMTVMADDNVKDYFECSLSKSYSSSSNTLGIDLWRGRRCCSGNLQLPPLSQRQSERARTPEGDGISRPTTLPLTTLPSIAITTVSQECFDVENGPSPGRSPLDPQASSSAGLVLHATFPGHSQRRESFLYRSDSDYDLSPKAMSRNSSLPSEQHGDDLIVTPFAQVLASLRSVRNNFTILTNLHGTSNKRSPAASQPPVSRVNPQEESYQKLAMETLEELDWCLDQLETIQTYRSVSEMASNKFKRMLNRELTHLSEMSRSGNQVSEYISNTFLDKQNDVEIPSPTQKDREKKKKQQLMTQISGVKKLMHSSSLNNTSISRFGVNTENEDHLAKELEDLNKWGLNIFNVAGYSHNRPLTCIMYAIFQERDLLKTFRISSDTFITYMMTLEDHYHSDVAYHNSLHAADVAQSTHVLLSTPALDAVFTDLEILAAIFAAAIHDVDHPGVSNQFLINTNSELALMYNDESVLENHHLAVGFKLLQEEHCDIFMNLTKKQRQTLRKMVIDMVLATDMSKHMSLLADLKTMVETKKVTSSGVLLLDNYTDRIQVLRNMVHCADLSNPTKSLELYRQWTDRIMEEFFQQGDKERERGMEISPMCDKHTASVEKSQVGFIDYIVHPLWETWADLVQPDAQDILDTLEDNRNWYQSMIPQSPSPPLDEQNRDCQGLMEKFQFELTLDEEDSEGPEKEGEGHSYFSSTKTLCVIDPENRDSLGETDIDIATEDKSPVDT
Assay [3] is described as follows: Inhibition of PDE7 in human HUT78 cell lysate using cAMP as substrate after 20 mins by scintillation proximity assay. For orientation: In a scintillation proximity assay essentially only radioactivity close to the scintillant gives light.
A short description of assay [4]: Inhibition of PDE4 in human HUT78 cell lysate using cAMP as substrate after 20 mins by scintillation proximity assay.
Assay [5] addresses T1, High affinity 3',5'-cyclic-AMP phosphodiesterase 7A (Homo sapiens, UniProt Q13946). The assay is described as follows: Inhibition of human GST-tagged PDE7A expressed in baculovirus infected Sf9 insect cells using cAMP as substrate after 10 mins by PDE-Glo Phosphodiesterase Assay.
The target of assay [6] is T1, High affinity 3',5'-cyclic-AMP phosphodiesterase 7A. The experiment in a line: Inhibition of PDE7A1 (unknown origin) expressed in baculovirus infected insect cells using [3H]cAMP as substrate preincubated for 5 mins followed by substrate addition and measured after 15 mins by scintillation proximity assay.
The target in assay [7] is 3',5'-cyclic-AMP phosphodiesterase 4D (Homo sapiens, UniProt Q08499). The assay is described as follows: Inhibition of PDE4D3 (unknown origin) using [3H]cAMP as substrate preincubated for 5 mins followed by substrate addition and measured after 15 mins by scintillation proximity assay.
3',5'-cyclic-AMP phosphodiesterase 4D, sequence (Q08499 whole entry): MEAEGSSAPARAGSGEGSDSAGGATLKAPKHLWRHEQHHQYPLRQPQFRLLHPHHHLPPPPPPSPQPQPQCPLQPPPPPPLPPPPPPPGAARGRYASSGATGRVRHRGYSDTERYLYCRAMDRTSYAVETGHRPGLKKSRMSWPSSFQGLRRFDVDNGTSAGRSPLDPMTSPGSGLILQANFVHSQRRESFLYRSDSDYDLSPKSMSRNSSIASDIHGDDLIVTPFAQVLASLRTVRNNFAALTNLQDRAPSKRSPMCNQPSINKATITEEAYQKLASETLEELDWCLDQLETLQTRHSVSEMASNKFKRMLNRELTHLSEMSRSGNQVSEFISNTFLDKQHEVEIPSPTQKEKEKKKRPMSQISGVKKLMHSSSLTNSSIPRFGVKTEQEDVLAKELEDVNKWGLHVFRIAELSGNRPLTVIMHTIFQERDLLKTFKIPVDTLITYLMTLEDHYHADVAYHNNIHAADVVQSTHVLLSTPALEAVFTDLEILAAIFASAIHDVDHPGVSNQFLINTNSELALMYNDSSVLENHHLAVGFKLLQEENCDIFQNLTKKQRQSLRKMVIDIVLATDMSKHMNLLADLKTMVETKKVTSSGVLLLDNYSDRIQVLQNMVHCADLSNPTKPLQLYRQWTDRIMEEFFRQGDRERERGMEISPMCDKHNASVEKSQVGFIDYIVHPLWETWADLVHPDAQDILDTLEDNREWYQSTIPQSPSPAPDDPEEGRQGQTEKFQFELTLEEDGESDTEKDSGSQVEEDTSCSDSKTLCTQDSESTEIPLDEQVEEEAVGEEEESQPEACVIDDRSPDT
The nature of assay [8]: Inhibition of PDE4 (unknown origin) using [3H]-cAMP as substrate after 60 mins by scintillation proximity assay. On the set-up: species or system Homo sapiens.
The nature of assay [9]: Inhibition of human recombinant His-tagged PDE7 expressed in baculovirus infected Sf9 insect cells using [3H]-cAMP as substrate after 60 mins by scintillation proximity assay.
Assay [10] concerns Rattus norvegicus. The experiment in a line: Antiinflammatory activity in albino Wistar rat assessed as inhibition of LPS-induced TNFalpha production in plasma at 50 mg/kg, ip after 1.5 hrs by ELISA relative to control. Format: functional. (ELISA stands for enzyme-linked immunosorbent assay.)
Assay [11] can be described thus: Inhibition of human PDE4 using [3H]-cAMP as substrate after 15 mins by scintillation proximity assay.
For assay [12], the target named is T1, High affinity 3',5'-cyclic-AMP phosphodiesterase 7A. The experiment in a line: Inhibition of human C-terminal FLAG-tagged PDE7A expressed in baculovirus infected Sf9 cells using [3H]-cAMP as substrate after 15 mins by scintillation proximity assay.
In assay [13] the test system is Rattus norvegicus. The assay is described as follows: Antiinflammatory activity in albino Wistar rat assessed as inhibition of LPS-induced TNFalpha production in plasma at 50 mg/kg, ip after 2 hrs by ELISA. Format: functional, organism-based.
For assay [14], the system named is Rattus norvegicus. The assay is described as follows: Antiinflammatory activity in albino Wistar rat assessed as inhibition of LPS-induced TNFalpha production in plasma at 50 mg/kg, ip after 1 hr by ELISA. Format: functional, organism-based.
In assay [15] the target is T1, High affinity 3',5'-cyclic-AMP phosphodiesterase 7A. The assay is described as follows: Inhibition of human recombinant FLAG-tagged PDE7A expressed in African green monkey COS7 cells using [3H]cAMP as substrate after 30 mins by scintillation counting analysis. The class given is cell-based.
The nature of assay [16]: Inhibition of guinea pig PDE4 using [3H]cAMP as substrate after 30 mins.

Calls of active or inactive are those of the source. The rule behind the calls is not given here. Some results are limits rather than exact numbers.

T1 sequence (Q13946 whole entry): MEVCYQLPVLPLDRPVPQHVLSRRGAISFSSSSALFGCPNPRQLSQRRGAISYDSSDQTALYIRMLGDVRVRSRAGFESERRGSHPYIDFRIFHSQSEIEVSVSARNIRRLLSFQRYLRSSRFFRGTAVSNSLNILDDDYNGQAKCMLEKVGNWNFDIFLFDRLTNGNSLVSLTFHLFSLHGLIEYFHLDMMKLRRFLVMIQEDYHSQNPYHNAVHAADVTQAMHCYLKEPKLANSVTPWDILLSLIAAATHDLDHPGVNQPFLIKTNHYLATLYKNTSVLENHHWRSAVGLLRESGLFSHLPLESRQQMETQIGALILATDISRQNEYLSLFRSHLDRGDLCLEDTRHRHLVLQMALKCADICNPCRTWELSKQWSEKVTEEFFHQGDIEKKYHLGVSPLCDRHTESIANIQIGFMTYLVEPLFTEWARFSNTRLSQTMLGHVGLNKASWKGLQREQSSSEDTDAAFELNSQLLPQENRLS

Consider `Cn1c(=O)c2nc[nH]c2n(C)c1=O.O` [THEOPHYLLINE], for which the Activity in assay [1] turned out to be 296.9 pmol/mL. Also, the IC50 (commonly the point on the concentration scale where inhibition reaches its midpoint) in assay [2] is above 200 µM.
Consider `CCOC(=O)c1sc(Nc2nc(N3CCC(O)CC3)cc(N3CCC(O)CC3)n2)nc1C`, for which the values for the IC50 in assay [3] and in assay [4] were 60 nM and 3.2 µM, respectively.
As to `Cn1c(=O)c2c(nc(NCc3ccccn3)n2CCCC(=O)N/N=C/c2ccc(O)c(O)c2O)n(C)c1=O`, the half-maximal inhibitory concentration (IC50) is 1.8 µM in assay [2] and 9.5 µM in [5].
The matching figures for `Cn1c(=O)c2c(nc(NCc3ccccc3)n2CCCC(=O)N/N=C/c2ccc(O)cc2O)n(C)c1=O`: 5.5 µM and 116 µM.
For `Cc1ccc([N+](=O)[O-])cc1S(=O)(=O)N(C)C`, in that order: 175 µM and 2.1 µM.
The matching figures for `Cn1c(=O)c2c(nc(NCc3ccccn3)n2CCCC(=O)N/N=C/c2ccccc2O)n(C)c1=O`: 7.7 µM and above 200 µM.
With `Cn1c(=O)c2c(nc(NCc3ccco3)n2CCCC(=O)N/N=C/c2ccc(O)cc2O)n(C)c1=O`, the half-maximal inhibitory concentration (IC50) in assay [2] is 4.4 µM; in [5], 10.5 µM.
On to `COc1ccc(C2=NN(C3CCCC3)C(=O)C3CC=CCC23)cc1Cl` (stereo not given), for which the half-maximal inhibitory concentration (IC50) in assay [6] amounted to 18 nM; in [7], 0.78 nM.
Regarding `CCC(C)(O)c1oc(=O)c2ccccc2c1-c1ccc(OC)c(OC2CCCC2)c1` (stereo not given), the IC50 in [8] was 3.8 µM; in assay [9] it was 3.1 µM.
With `COc1ccc(/C=N/NC(=O)CCCn2c(NCc3ccco3)nc3c2c(=O)n(C)c(=O)n3C)c(O)c1`, the IC50 in assay [2] worked out at 70.8 µM; in assay [5] it was 69.8 µM.
For `CCCOc1nc2c(c(=O)n(C)c(=O)n2C)n1CCCC(=O)N/N=C/c1ccc(OC)cc1O`, in that order: 47.8 µM and 89.3 µM.
Take `COc1ccc(C2CNC(=O)C2)cc1OC1CCCC1` (stereo not given) [ROLIPRAM]: the IC50 in assay [5] was above 200 µM.
Take `CCCOc1nc2c(c(=O)n(C)c(=O)n2C)n1CCCC(=O)N/N=C/c1ccc(O)cc1O`: the IC50 in assay [2] was 116 µM; in assay [5], 56.1 µM.
For `CCOc1nc2c(c(=O)n(C)c(=O)n2C)n1CCCC(=O)N/N=C/c1ccccc1OC`, in that order: above 200 µM and above 200 µM.
The matching figures for `COc1ccc(/C=N/NC(=O)CCCn2c(NCc3ccccc3)nc3c2c(=O)n(C)c(=O)n3C)c(O)c1`: 44 µM and 52.8 µM.
For `Cn1c(=O)c2c(ncn2CCCC(=O)N/N=C/c2ccc(O)cc2O)n(C)c1=O`, in that order: above 200 µM and above 200 µM.
As for `CCOc1nc2c(c(=O)n(C)c(=O)n2C)n1CCCC(=O)N/N=C/c1ccc(OC)cc1O`, the IC50 in assay [2] and in [5] was above 200 µM in each case.
Regarding `CCOc1nc2c(c(=O)n(C)c(=O)n2C)n1CCCC(=O)N/N=C/c1ccc(O)cc1O`, the IC50 in assay [2] was determined as 16.2 µM; in [5], 141 µM.
In the case of `Cn1c(=O)c2c(nc(NCc3ccco3)n2CCCC(=O)N/N=C/c2ccccc2O)n(C)c1=O`, the IC50 was 12.5 µM in assay [2] and above 200 µM in [5].
In the case of `CCOc1nc2c(c(=O)n(C)c(=O)n2C)n1CCCC(=O)N/N=C/c1ccccc1O`, the half-inhibitory concentration (IC50) was 7.9 µM in assay [2] and 27.6 µM in [5].
Turning to `Cn1c(=O)c2c(nc(NCc3ccco3)n2CCCC(=O)N/N=C/c2ccc(O)c(O)c2O)n(C)c1=O`, the IC50 in [2] amounted to 7.4 µM; in assay [5], 3.8 µM. Further, the inhibition in vivo (as a rule, the drop in the measured response relative to a control, in per cent) at 50 mg/kg in assay [10] was 88%.
For `Cn1c(=O)c2c(nc(NCCc3ccccc3)n2CCCC(=O)N/N=C/c2ccc(O)c(O)c2O)n(C)c1=O`, in that order: 1.4 µM, 3.2 µM and 84%.
In the case of `COc1ccc(-c2cc3c(n2-c2ccc(S(=O)(=O)Nc4nc(C)cc(C)n4)cc2)CCC(N2CCN(C)CC2)C3)cc1C` (stereo not given), the IC50 in assay [11] worked out at 630 nM; in assay [12] it was 14 nM.
As for `Cn1c(=O)c2c(nc(NCc3ccccc3)n2CCCC(=O)N/N=C/c2ccc(O)c(O)c2O)n(C)c1=O`, the inhibition result in assay [13] and in [14] was “inactive” each time. For the same compound, the IC50 turned out to be 1.9 µM in assay [2] and 8.1 µM in assay [5]. In assay [10], the inhibition in vivo at 50 mg/kg came to 53%.
Consider `CCCOc1nc2c(c(=O)n(C)c(=O)n2C)n1CCCC(=O)N/N=C/c1ccccc1O`, for which the half-inhibitory concentration (IC50) in [2] turned out to be 31.1 µM; in [5], 11.7 µM.
As for `CCOC(=O)c1sc(Nc2nc(NCc3cc(OC)c(OC)c(OC)c3)cc(N3CCC(N(C)C)CC3)n2)nc1C`, the IC50 in [3] turned out to be 3 nM; in [4], 3 µM.
For the compound `CCOc1nc2c(c(=O)n(C)c(=O)n2C)n1CCCC(=O)N/N=C/c1ccccc1`, the concentration for half-maximal inhibition (IC50) in assay [2] was found to be 37 µM; in assay [5], 48.9 µM.
The matching figures for `CCCOc1nc2c(c(=O)n(C)c(=O)n2C)n1CCCC(=O)N/N=C/c1ccccc1`: 51.8 µM and 92.9 µM.
In the case of `CCOc1cc2cc(CO)c(CO)c(-c3ccnc(-n4nc(-c5cccnc5)c5ccccc5c4=O)c3)c2cc1OCC`, the IC50 came out at 1700 nM in assay [15] and 0.13 nM in assay [16].
Turning to `CC(C)Cn1c(=O)n(C)c(=O)c2[nH]cnc21` [ISOBUTYLMETHYLXANTHINE], the IC50 in assay [2] stood at 28.2 µM; in [5] it was 85.6 µM.
The matching figures for `Cn1c(=O)c2c(nc(NCCc3ccccc3)n2CCCC(=O)N/N=C/c2ccccc2O)n(C)c1=O`: 26.9 µM and 7.3 µM.
The matching figures for `Cn1c(=O)c2c(ncn2CCCC(=O)N/N=C/c2ccccc2O)n(C)c1=O`: above 200 µM and above 200 µM.
For the compound `Cn1c(=O)c2c(nc(NCc3ccccc3)n2CCCC(=O)N/N=C/c2ccccc2O)n(C)c1=O`, the IC50 was above 200 µM in assay [2] and 33.6 µM in assay [5].
